Experimental data as given in patent publication US12258336B2, “Preparation of seimicarbazide-sensitive amine oxidase inhibitor and use thereof” (SHANGHAI ENNOVABIO PHARMACEUTICALS CO., LTD., priority 2018, dated 2025).
Read-outs that look alike come from different tables or passages of the source.

Tests used:
SSAO/VAP-1 = target: T1, SSAO/VAP-1 (Rattus norvegicus, UniProt O08590); assay: Inhibitory activity on SSAO/VAP-1 in animal tissues after oral administration; type: in vivo; details: 24 hours post single administration, mean ± SEM
T1 construct: from tissue; host or cells: rat plasma, brain, retina, small intestine, lung, liver, kidney
T1 sequence (O08590 1-763): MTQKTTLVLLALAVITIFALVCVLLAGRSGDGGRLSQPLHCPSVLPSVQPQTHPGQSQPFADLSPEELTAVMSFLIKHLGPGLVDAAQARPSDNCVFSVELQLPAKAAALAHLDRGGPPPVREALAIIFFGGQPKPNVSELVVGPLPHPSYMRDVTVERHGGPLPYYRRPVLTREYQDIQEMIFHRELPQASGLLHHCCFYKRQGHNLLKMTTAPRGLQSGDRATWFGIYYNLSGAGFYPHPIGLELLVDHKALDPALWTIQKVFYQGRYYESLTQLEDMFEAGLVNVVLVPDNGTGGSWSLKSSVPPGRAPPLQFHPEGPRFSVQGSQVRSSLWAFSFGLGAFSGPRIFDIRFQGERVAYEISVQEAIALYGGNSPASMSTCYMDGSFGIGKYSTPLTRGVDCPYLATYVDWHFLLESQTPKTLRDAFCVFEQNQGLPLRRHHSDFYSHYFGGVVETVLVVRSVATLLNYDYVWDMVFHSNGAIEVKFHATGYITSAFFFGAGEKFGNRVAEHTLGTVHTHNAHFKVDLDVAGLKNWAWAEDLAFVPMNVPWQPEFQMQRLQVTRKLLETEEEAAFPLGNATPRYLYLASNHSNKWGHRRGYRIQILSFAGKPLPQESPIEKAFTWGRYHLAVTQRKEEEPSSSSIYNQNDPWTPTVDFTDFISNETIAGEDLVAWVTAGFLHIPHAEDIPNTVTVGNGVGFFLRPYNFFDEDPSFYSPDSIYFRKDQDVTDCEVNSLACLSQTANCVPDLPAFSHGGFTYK
Procedure: MAO-Glo Assay kit (Promega, V1402) was used to determine the activity of SSAO in animal tissues. After test compounds were adminstered to the animal, SSAO enzyme activity was calculated by measuring the activity of the monoamine oxidases in the animal tissue homogenate that was insensitive to MAO inhibitors Clogyline and Pargyline. The compounds were orally administered to rats at different doses, and same volume of vehicle was orally administered to control animals. Animal plasma, brain, retina, small intestine, lung, liver, and kidney were respectively collected 24 hours after administration (the animals were perfused with PBS before the collection of small intestine, lung, liver, and kidney) and stored in a −80° C. refrigerator until analysis. Each tissue was homogenized in tissue homogenate lysis buffer (20 mM HEPES, pH 7.4, 150 mM NaCl, 1 mM EDTA, 1 mM EGTA, 1% Triton X-100 and 1× Roche Complete protease inhibitor tablet). The homogenate was centrifuged at 12000 rpm at 4° C. for 30 minutes to remove tissue fragments. 5 μL of supernatant and 2 μL of mixture of Clogyline (10 μM) and Pargyline (10 μM) were incubated for 10 minutes at room temperature. Then 2 μL of substrate from MAO-Glo assay kit was added to the mixture, and reacted at room temperature for 60 minutes. Detection reagents were added to quench the reaction according to instructions. The fluorescein data was read by Biotek Neo2. The activity of monoamine oxidase in tissues that is not sensitive to MAO inhibitors was used to represent the activity of SSAO. Percentage of SSAO activity in administered animals was compared with that of control animals to calculate the compound inhibition rate.

rat SSAO protein = target: T2, rat SSAO protein (Rattus norvegicus, UniProt O08590); assay: In vitro inhibitory activity on SSAO/VAP-1 (MAO-Glo assay), rat; type: biochemical
T2 construct: Eli Lilly (provided, not a catalogue product)
T2 sequence (O08590 1-763): T1 sequence (O08590 1-763)
Procedure: This assay was used to evaluate the in vitro inhibitory activity of the compounds on SSAO/VAP-1 of different species. Recombinant human SSAO protein, mouse SSAO protein or rat SSAO protein (provided by Eli Lilly) were used. The enzyme activity detection kit, MAO-Glo Assay kit (V1402) was purchased from Promega. Enzyme reaction buffer (50 mM HEPES, 120 mM NaCl, 5 mM KCl, 2 mM CaCl2, 1.4 mM MgCl2, 0.001% Tween-20, pH7.4) was prepared. The test compound was dissolved in DMSO and diluted by 3-fold concentration in gradient. The final concentration of test compound in a 10 μL reaction system was 1 μM to 0.05 nM when SSAO was detected. The content of DMSO in the detection reaction was 1%. After the solution of test compound in DMSO was diluted in the enzyme reaction buffer at a volume ratio of 1:25, 2.5 μL of which was added to each well of detection plate, two replicates for each concentration. 5 μL of SSAO protein diluted in the enzyme reaction buffer was added to each well, the final concentration of which was 10 nM to 80 nM in 10 μL reaction system. The mixture was incubated at room temperature for 10 minutes. 2.5 μL of the reaction substrate diluted in the enzyme reaction buffer was added to each well, the final concentration of which was 10 μM in 10 μL reaction system. After the mixture was reacted at room temperature for 120 minutes, 10 μL of detection reagent was added to each well. The reaction solution was incubated for 20 minutes at room temperature, and the plate was read with Synergy Neo 2 for detection. The value was converted into inhibition rate by the following formula: Inhibition rate=(Signalpositive−Signaltest)/(Signalpositive−Signalnegative)×100%
Signalpositive was positive control without test compound. Signalnegative was negative control without test compound and SSAO enzyme, and Signaltest was detection value of each compound at different concentrations. IC50 value was calculated by using 4 parameter curve fitting.

[1] = brain, read-out: remaining SSAO activity percentage (SSAO activity %), Brain
[2] = kidney, read-out: remaining SSAO activity percentage (SSAO activity %), kidney
[3] = liver, read-out: remaining SSAO activity percentage (SSAO activity %), Liver
[4] = lung, read-out: remaining SSAO activity percentage (SSAO activity %), Lung
[5] = plasma, read-out: remaining SSAO activity percentage (SSAO activity %), Plasma
[6] = retina, read-out: remaining SSAO activity percentage (SSAO activity %), Retina
[7] = small intestine, read-out: remaining SSAO activity percentage (SSAO activity %), Small intestine

Question: How did the remaining activity at 0.005 mg/kg (SSAO/VAP-1; [1]) turn out when `NC/C(=C\F)COc1cnc(N2CCN(C3COC3)CC2)nc1` [Example 4, (E)-3-fluoro-2-(((2-(4-(oxbutan-3-yl)piperazin-1-yl)pyrimidin-5-yl)oxo)methyl)prop-2-en-1-amine] was run?
Answer: 98.3 ± 25.4%

Question: What about the remaining activity at 0.005 mg/kg (SSAO/VAP-1; [2]) of the same molecule?
Answer: 99.2 ± 4.1%

Question: And the remaining activity at 0.005 mg/kg (SSAO/VAP-1; [3])?
Answer: 108 ± 33.5%

Question: What about the remaining activity at 0.005 mg/kg (SSAO/VAP-1; [4]) of the same molecule?
Answer: 94.9 ± 17.2%

Question: And the remaining activity at 0.005 mg/kg (SSAO/VAP-1; [5])?
Answer: 61.7 ± 8.2%

Question: What about the remaining activity at 0.005 mg/kg (SSAO/VAP-1; [6]) of the same molecule?
Answer: 65 ± 14%

Question: What about the remaining activity at 0.025 mg/kg (SSAO/VAP-1; [1]) of the same molecule?
Answer: 143 ± 68.3%

Question: And the remaining activity at 0.025 mg/kg (SSAO/VAP-1; [2])?
Answer: 58.7 ± 12.1%

Question: And the remaining activity at 0.025 mg/kg (SSAO/VAP-1; [3])?
Answer: 14.4 ± 8.1%

Question: And the remaining activity at 0.025 mg/kg (SSAO/VAP-1; [4])?
Answer: 64 ± 20.3%

Question: And the remaining activity at 0.025 mg/kg (SSAO/VAP-1; [5])?
Answer: 58.6 ± 4.2%

Question: What about the remaining activity at 0.025 mg/kg (SSAO/VAP-1; [6]) of the same molecule?
Answer: 49.1 ± 7.1%

Question: And the remaining activity at 0.12 mg/kg (SSAO/VAP-1; [1])?
Answer: 75.4 ± 7.4%

Question: And the remaining activity at 0.12 mg/kg (SSAO/VAP-1; [2])?
Answer: 46.3 ± 3.5%

Question: What about the remaining activity at 0.12 mg/kg (SSAO/VAP-1; [3]) of the same molecule?
Answer: 40.1 ± 8.2%

Question: And the remaining activity at 0.12 mg/kg (SSAO/VAP-1; [4])?
Answer: 39.8 ± 11.3%

Question: What about the remaining activity at 0.12 mg/kg (SSAO/VAP-1; [5]) of the same molecule?
Answer: 33.7 ± 1.9%

Question: And the remaining activity at 0.12 mg/kg (SSAO/VAP-1; [6])?
Answer: 25.1 ± 5.3%

Question: And the remaining activity at 0.12 mg/kg (SSAO/VAP-1; [7])?
Answer: 96.9 ± 21.7%

Question: And the remaining activity at 0.6 mg/kg (SSAO/VAP-1; [1])?
Answer: 26.5 ± 11.8%

Question: And the remaining activity at 0.6 mg/kg (SSAO/VAP-1; [2])?
Answer: 26.2 ± 10.1%

Question: What about the remaining activity at 0.6 mg/kg (SSAO/VAP-1; [3]) of the same molecule?
Answer: 3 ± 7.6%

Question: What about the remaining activity at 0.6 mg/kg (SSAO/VAP-1; [4]) of the same molecule?
Answer: 14.1 ± 3.8%

Question: And the remaining activity at 0.6 mg/kg (SSAO/VAP-1; [5])?
Answer: 12.9 ± 2.2%

Question: And the remaining activity at 0.6 mg/kg (SSAO/VAP-1; [6])?
Answer: 8 ± 1.2%

Question: And the remaining activity at 0.6 mg/kg (SSAO/VAP-1; [7])?
Answer: 38.9 ± 3.2%

Question: And the remaining activity at 3 mg/kg (SSAO/VAP-1; [1])?
Answer: 22.1 ± 7.7%

Question: And the remaining activity at 3 mg/kg (SSAO/VAP-1; [2])?
Answer: 0.7 ± 1.8%

Question: What about the remaining activity at 3 mg/kg (SSAO/VAP-1; [3]) of the same molecule?
Answer: 5.3 ± 3.2%

Question: And the remaining activity at 3 mg/kg (SSAO/VAP-1; [4])?
Answer: 4.6 ± 2.5%

Question: What about the remaining activity at 3 mg/kg (SSAO/VAP-1; [5]) of the same molecule?
Answer: 1.8 ± 0.2%

Question: What about the remaining activity at 3 mg/kg (SSAO/VAP-1; [6]) of the same molecule?
Answer: 5.2 ± 2.4%

Question: And the remaining activity at 3 mg/kg (SSAO/VAP-1; [7])?
Answer: 11.1 ± 4.4%

Question: And the remaining activity at 15 mg/kg (SSAO/VAP-1; [1])?
Answer: 4 ± 1.7%

Question: What about the remaining activity at 15 mg/kg (SSAO/VAP-1; [2]) of the same molecule?
Answer: 2.4 ± 1.3%

Question: What about the remaining activity at 15 mg/kg (SSAO/VAP-1; [3]) of the same molecule?
Answer: -2.4 ± 5.4%

Question: What about the remaining activity at 15 mg/kg (SSAO/VAP-1; [4]) of the same molecule?
Answer: 2.2 ± 0.2%

Question: And the remaining activity at 15 mg/kg (SSAO/VAP-1; [5])?
Answer: 1.1 ± 0.4%

Question: What about the remaining activity at 15 mg/kg (SSAO/VAP-1; [6]) of the same molecule?
Answer: 3 ± 2.2%

Question: What about the remaining activity at 15 mg/kg (SSAO/VAP-1; [7]) of the same molecule?
Answer: 1.1 ± 0.9%

Question: What about the IC50 (rat SSAO protein) of the same molecule?
Answer: < 100 nM
